In brackets after ≈: the same amount, converted by molar mass.
conditions: buffer; pH 7.4; 200.0 µM

| Structure (SMILES) | solubility kinetic |
| --- | --- |
| Cc1ccc(-c2c(C(=O)O)c3ccccc3[nH]c2=O)cc1 | > 0.0419 mg/mL |
| COc1cc(C(=O)N2CCCN(C)CC2)cc(OC)c1C.Cl | > 0.0493 mg/mL |
| COc1ccc(C(=O)NCCCNC(=O)c2ccccn2)cc1 | > 0.047 mg/mL |
| CC(=O)Nc1ccc(NC(=O)COc2ncnc3ccccc23)cc1 | > 0.0505 mg/mL |
| O=C(NCc1ccc(Cl)cc1)c1csc(-c2cccnc2)n1 | 0.0379 mg/mL (≈ 115 µM) |
| Cc1cccc(SCC(=O)Nc2ccc3c(c2)OCCO3)c1 | 0.0364 mg/mL (≈ 115 µM) |
| CC(=O)c1sc(Nc2cccc(C)c2)nc1C | 0.003 mg/mL (≈ 12.2 µM) |
| Cc1nc2c(C)cccn2c(=O)c1NC(=O)c1ccco1 | > 0.0425 mg/mL |
| CC1CC(C)CN(C(=O)c2cccc(S(=O)(=O)NCc3ccccc3)c2)C1 (configuration not stated) | > 0.058 mg/mL |
| O=C(CSc1nnc2ccccn12)NCCc1ccc(F)cc1 | > 0.0496 mg/mL |
| O=C(COc1cccc(C(F)(F)F)c1)Nc1cccnc1 | > 0.0444 mg/mL |
| O=C(Nc1ccc2c(c1)OCO2)C1CC(=O)N(c2ccc3c(c2)OCCO3)C1 (configuration not stated) | 0.0036 mg/mL (≈ 9.41 µM) |
| Cc1ccc2c(CN3CCN(Cc4ccccc4)CC3)cc(=O)oc2c1 | 0.0494 mg/mL (≈ 142 µM) |
| COc1cccc2cc(C(=O)NCc3ccc(C)cc3)c(=O)oc12 | < 0.0007 mg/mL |
| Fc1cccc(Cl)c1CNc1ccc(N2CCCC2)cc1 | 0.0007 mg/mL (≈ 2.3 µM) |
| Cc1ccc(-c2csc(NC(=O)c3cccc(C)c3)c2C(=O)O)cc1 | > 0.0527 mg/mL |
| CC(C)CCN1CCN(Cc2nc3ccccc3s2)CC1CCO (configuration not stated) | > 0.0521 mg/mL |
| Cc1ccc(-c2cc(-c3ccco3)c(C#N)c(=O)[nH]2)cc1 | 0.0026 mg/mL (≈ 9.41 µM) |
| Cc1ccccc1S(=O)(=O)/N=C(/c1ccccc1)N(C)C | 0.0449 mg/mL (≈ 148 µM) |
| COc1cccc(NC(=O)NCc2ccccc2Cl)c1 | 0.001 mg/mL (≈ 3.44 µM) |
| O=C(NC1CCSc2ccccc21)c1cccc([N+](=O)[O-])c1 (configuration not stated) | 0.0024 mg/mL (≈ 7.63 µM) |
| CCOC(=O)c1cnc2ccc(C)cc2c1N(C)Cc1ccccc1 | 0.0038 mg/mL (≈ 11.4 µM) |
| O=S(=O)(NC1CC1)c1ccc(Cl)cc1 | > 0.0348 mg/mL |
| CCCCCC(=O)O/N=C(\C)c1ccn(S(=O)(=O)c2ccccc2)c1 | 0.0013 mg/mL (≈ 3.59 µM) |

| Structure (SMILES) | solubility kinetic |
| --- | --- |
| O=C(O)c1ccccc1Nc1ccnc(Cl)n1 | > 0.0374 mg/mL |
| Cc1ccc2oc(C(=O)NCC(c3ccco3)N(C)C)c(C)c2c1 (configuration not stated) | > 0.049 mg/mL |
| COc1ccc2oc(=O)c(C(=O)NC3CCCCCC3)cc2c1 | 0.0026 mg/mL (≈ 8.24 µM) |
| COc1cc(OC)cc(C(=O)Nc2ccc(N(C)C)c3ccccc23)c1 | < 0.0004 mg/mL |
| COc1ccc(CC(=O)N(Cc2ccccc2)C(C)C)cc1 | 0.0407 mg/mL (≈ 137 µM) |
| COC(=O)c1sccc1NC(=O)C1CCCCC1C(=O)O (configuration not stated) | 0.0421 mg/mL (≈ 135 µM) |
| CCOc1ccccc1C(=O)Nc1cccc2ccccc12 | < 0.0006 mg/mL |
| Cc1ccc(NC(=O)CSCC(=O)O)cc1 | > 0.0359 mg/mL |
| COc1ccccc1NC(=O)NCCCCc1ccccc1 | 0.0053 mg/mL (≈ 17.8 µM) |
| CCNC(=S)N1CCCC(c2nc3ccc(C)cc3[nH]2)C1 (configuration not stated) | > 0.0454 mg/mL |
| COc1ccc(C)cc1S(=O)(=O)NCc1cccs1 | 0.0424 mg/mL (≈ 143 µM) |
| CC(=O)Nc1ccc(NC(=O)C(C)OC(=O)C2CCC2)cc1 (configuration not stated) | > 0.0457 mg/mL |
| CCC(C(=O)OC(C)C(=O)Nc1ccc(Cl)cn1)c1ccccc1 (configuration not stated) | 0.0169 mg/mL (≈ 48.7 µM) |
| CCN(CC)S(=O)(=O)c1cc(NC(=O)CSCc2c(C)noc2C)ccc1C | > 0.0638 mg/mL |
| Cl.NS(=O)(=O)c1ccc(CCNCC#Cc2ccccc2)cc1 | > 0.0526 mg/mL |
| Cc1cccc(N2C(=O)C3C4C=CC(C5CC45)C3C2=O)n1 (configuration not stated) | 0.0365 mg/mL (≈ 130 µM) |
| CS(=O)(=O)N(CC(=O)N1CCCC1)c1ccc(Cl)cc1 | > 0.0475 mg/mL |
| Cc1cc(C)c(C(N)=O)c(Nc2ccc(F)cc2)n1 | > 0.0389 mg/mL |
| COc1ccc(S(=O)(=O)N(C)CC(=O)N2CCCC2)cc1OC | > 0.0514 mg/mL |
| O=C(COC(=O)C1C2CC3OC(=O)C1C3C2)Nc1ccc(F)cc1 (configuration not stated) | > 0.05 mg/mL |
| COc1ccc(CCNC(=O)c2ccc3ccccc3n2)cc1 | 0.0222 mg/mL (≈ 72.5 µM) |
| CCOc1ccc(CNC2CCCCCCC2)cc1OC.Cl | 0.0371 mg/mL |
| Cc1cc(NC(=O)c2ccco2)c(=O)n(Cc2cccc(C(F)(F)F)c2)c1 | < 0.0004 mg/mL |

— PubChem BioAssay AID1996
